1 molecule from patent publication US8337835B2, “Use of an endogenous ligand for peroxisome proliferator activated receptor alpha to treat liver disorders” (priority 2009, dated 2012) can be followed below.

The target in this experiment is T1, PPARα ligand binding domain (LBD) (Homo sapiens, UniProt Q07869).
T1 construct: 6xHis; made in house
T1 sequence (Q07869 239-466 limits assumed): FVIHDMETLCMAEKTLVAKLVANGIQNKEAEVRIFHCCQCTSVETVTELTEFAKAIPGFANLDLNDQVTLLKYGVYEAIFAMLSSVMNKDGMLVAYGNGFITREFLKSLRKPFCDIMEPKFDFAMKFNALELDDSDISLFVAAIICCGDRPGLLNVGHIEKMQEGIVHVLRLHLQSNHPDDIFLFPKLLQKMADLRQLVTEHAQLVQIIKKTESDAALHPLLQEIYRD
In words: ALPHASCREEN binding assay, PPARα ligand binding domain. Here is the method: Binding of 16:0/18:1-GPC and known agonists to the ligand binding domain (LBD) of PPARα in the presence of various peptide motifs was determined by ALPHASCREEN™ assay (Proc Natl Acad Sci USA 105, pp. 5034-5039, 2008). Experiments used 100 nM receptor LBD, purified as 6× His tag fusion proteins (Mol Cell 17, pp. 491-502, 2005), and 20 nM of N-terminal biotinylated CBP1 peptide or other coactivator peptides in the presence of 5 μg/ml donor and acceptor beads in 50 mM MOPS (pH 7.4), 100 mM NaCl, and 0.1 mg/ml BSA for 90 min at 25° C. Signals were generated in the absence or the presence of ligand. Identical experiments were performed using the PPARδ and PPARγ LBDs.
Stealth™ siRNA oligonucleotides were used to inhibit the gene expression of mouse ChPT1 ([…]) (SEQ ID NO: 1) and CEPT1 ([…]) (SEQ ID NO: 2) were from Invitrogen (Carlsbad, Calif.). […] Expression of ACO and CPT-1 was also assessed 24 h after addition of 50 μM 16:0/18:1-GPC in a subset of Hepa 1-6 cells previously treated with CEPT1 siRNA. mRNA levels are normalized to control L32 ribosomal mRNA. […] FIGS. 6F-H show the binding of various peptide motifs to the purified PPARα (FIG. 6F), PPARδ (FIG. 6G), and PPARγ (FIG. 6H) LBD in the presence of 5 μM of the corresponding PPAR agonist or 16:0/18:1-GPC as measured by AlphaScreen assays. […]
For orientation: In Alpha technology, singlet oxygen from a donor bead excites a nearby acceptor bead.

Each structure is given as a SMILES string.

For `CCCCCCCC/C=C\CCCCCCCC(=O)O[C@H](COC(=O)CCCCCCCCCCCCCCC)COP(=O)([O-])OCC[N+](C)(C)C` [16:0/18:1-GPC, 1-palmitoyl-2-oleoyl-sn-glycerol-3-phosphocholine], the “binding affinity to PPARα compared with Wy14,643” value was “binds with sufficient affinity to PPARα comparable to Wy14,643”.
